Columns and labels:
[1] = species on record: Gallus gallus; assay: Antiangiogenic activity against fertile leghorn chicken eggs by CAM assay; assay type: functional, organism-based
[2] = molecular target: Platelet-derived growth factor receptor beta (Homo sapiens, UniProt P09619); assay: Inhibition of PDGFRbeta expressed in human tumor cells
[3] = test system: A-431; assay: cells; settings: Homo sapiens
Description: Cytotoxicity against human A431 cells

[4] = molecular target: Epidermal growth factor receptor (Homo sapiens, UniProt P00533); assay: Inhibition of EGFR expressed in human tumor cells
Chain of Epidermal growth factor receptor (P00533 whole entry): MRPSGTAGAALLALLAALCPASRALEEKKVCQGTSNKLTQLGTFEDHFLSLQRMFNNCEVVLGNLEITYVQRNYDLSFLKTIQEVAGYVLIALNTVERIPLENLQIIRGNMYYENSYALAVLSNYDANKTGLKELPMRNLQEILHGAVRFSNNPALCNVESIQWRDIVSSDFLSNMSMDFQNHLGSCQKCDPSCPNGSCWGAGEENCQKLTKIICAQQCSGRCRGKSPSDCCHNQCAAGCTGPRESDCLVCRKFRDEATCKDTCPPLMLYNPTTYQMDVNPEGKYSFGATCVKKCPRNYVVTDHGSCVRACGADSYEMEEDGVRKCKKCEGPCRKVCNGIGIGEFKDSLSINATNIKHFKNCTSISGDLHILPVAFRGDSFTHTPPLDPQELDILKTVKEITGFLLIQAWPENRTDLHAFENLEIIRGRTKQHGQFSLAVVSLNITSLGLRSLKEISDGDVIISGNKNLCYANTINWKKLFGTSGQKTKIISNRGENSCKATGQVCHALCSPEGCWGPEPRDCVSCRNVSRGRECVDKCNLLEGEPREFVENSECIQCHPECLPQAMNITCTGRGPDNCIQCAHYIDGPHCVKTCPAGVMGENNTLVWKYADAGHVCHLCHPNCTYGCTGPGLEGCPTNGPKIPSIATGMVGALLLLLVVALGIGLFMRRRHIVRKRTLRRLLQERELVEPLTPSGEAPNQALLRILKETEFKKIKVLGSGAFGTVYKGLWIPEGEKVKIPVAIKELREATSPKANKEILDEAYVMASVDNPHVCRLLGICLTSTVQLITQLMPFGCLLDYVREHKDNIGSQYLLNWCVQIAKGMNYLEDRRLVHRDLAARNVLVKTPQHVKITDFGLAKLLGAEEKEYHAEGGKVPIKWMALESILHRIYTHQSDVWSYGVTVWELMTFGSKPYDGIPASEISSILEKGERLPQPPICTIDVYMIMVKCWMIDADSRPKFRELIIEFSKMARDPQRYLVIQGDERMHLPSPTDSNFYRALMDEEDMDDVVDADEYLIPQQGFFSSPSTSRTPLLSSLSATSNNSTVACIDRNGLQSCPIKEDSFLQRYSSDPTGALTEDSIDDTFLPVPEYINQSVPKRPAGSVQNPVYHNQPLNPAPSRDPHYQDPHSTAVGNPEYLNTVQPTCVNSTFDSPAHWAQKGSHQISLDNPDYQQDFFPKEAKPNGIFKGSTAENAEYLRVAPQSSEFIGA

[5] = molecular target: Vascular endothelial growth factor receptor 1 (Homo sapiens, UniProt P17948); assay: Inhibition of VEGFR1 expressed in human tumor cells
Chain of Vascular endothelial growth factor receptor 1 (P17948 whole entry): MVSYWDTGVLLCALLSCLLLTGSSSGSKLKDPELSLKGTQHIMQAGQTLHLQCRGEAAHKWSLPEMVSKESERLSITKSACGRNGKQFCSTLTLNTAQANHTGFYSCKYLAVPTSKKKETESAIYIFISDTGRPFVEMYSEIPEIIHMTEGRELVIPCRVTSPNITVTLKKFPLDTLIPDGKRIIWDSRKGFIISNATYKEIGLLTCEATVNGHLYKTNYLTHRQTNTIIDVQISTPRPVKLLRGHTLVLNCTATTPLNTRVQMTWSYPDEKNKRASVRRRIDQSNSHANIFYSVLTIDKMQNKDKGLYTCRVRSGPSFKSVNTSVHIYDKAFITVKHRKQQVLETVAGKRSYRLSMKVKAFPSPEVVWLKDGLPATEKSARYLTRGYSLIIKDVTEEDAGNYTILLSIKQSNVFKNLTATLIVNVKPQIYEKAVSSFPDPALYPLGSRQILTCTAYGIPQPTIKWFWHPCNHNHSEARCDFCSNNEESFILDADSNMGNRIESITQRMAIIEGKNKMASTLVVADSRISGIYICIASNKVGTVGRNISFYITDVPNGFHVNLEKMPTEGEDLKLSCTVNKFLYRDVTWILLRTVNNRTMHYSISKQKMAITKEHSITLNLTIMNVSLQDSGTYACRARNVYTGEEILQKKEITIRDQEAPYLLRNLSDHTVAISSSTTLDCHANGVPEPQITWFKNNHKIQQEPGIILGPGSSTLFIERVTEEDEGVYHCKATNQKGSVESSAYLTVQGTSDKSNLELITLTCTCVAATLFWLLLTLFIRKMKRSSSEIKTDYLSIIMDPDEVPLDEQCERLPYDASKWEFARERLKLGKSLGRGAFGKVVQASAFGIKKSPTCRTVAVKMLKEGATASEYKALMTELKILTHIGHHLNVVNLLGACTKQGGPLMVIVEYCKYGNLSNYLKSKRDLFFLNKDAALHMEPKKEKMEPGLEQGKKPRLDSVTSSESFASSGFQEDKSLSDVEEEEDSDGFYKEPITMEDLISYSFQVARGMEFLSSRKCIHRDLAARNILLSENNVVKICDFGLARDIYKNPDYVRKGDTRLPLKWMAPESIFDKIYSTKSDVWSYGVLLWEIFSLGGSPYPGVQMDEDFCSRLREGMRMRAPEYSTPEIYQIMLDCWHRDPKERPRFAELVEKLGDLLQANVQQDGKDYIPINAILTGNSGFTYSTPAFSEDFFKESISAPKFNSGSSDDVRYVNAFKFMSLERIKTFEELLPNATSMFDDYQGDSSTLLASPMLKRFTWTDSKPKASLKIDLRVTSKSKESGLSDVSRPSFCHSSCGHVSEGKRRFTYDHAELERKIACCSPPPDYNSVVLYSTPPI

[6] = molecular target: Vascular endothelial growth factor receptor 2 (Homo sapiens, UniProt P35968)
Chain of Vascular endothelial growth factor receptor 2 (P35968 whole entry): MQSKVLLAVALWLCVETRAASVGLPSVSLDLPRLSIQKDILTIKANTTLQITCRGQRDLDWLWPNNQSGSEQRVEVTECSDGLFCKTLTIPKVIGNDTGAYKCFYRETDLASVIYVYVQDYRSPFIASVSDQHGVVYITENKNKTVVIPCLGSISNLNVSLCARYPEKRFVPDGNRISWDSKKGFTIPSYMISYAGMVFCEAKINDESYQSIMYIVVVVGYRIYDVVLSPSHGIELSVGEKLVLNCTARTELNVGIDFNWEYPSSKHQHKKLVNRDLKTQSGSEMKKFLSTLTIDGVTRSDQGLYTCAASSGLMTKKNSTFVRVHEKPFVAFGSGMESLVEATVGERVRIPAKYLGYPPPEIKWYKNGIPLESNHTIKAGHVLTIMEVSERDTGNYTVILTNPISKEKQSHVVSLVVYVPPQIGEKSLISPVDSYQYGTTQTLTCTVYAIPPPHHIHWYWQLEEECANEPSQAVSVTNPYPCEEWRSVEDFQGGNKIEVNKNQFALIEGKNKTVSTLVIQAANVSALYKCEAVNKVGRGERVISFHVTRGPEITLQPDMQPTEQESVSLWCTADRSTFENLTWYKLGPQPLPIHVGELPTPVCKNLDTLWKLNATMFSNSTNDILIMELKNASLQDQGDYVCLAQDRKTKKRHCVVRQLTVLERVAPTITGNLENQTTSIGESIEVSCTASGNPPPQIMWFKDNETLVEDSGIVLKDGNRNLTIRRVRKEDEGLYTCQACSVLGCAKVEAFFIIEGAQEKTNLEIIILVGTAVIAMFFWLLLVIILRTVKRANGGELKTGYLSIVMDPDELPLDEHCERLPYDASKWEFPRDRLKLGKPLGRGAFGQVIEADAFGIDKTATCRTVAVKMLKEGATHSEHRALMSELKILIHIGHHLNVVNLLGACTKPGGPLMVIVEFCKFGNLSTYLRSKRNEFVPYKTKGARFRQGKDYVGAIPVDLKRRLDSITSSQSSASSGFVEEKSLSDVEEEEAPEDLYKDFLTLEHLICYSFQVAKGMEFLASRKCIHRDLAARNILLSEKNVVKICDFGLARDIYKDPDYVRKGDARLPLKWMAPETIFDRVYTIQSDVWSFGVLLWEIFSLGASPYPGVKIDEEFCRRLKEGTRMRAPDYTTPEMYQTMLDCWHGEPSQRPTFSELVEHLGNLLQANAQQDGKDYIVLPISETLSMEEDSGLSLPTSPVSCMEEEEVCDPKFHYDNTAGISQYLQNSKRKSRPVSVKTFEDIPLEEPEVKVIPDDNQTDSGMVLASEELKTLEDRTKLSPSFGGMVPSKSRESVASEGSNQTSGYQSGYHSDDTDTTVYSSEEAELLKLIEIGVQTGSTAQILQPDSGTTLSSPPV
Description: Inhibition of VEGFR2 expressed in human tumor cells

Chain of Platelet-derived growth factor receptor beta (P09619 whole entry): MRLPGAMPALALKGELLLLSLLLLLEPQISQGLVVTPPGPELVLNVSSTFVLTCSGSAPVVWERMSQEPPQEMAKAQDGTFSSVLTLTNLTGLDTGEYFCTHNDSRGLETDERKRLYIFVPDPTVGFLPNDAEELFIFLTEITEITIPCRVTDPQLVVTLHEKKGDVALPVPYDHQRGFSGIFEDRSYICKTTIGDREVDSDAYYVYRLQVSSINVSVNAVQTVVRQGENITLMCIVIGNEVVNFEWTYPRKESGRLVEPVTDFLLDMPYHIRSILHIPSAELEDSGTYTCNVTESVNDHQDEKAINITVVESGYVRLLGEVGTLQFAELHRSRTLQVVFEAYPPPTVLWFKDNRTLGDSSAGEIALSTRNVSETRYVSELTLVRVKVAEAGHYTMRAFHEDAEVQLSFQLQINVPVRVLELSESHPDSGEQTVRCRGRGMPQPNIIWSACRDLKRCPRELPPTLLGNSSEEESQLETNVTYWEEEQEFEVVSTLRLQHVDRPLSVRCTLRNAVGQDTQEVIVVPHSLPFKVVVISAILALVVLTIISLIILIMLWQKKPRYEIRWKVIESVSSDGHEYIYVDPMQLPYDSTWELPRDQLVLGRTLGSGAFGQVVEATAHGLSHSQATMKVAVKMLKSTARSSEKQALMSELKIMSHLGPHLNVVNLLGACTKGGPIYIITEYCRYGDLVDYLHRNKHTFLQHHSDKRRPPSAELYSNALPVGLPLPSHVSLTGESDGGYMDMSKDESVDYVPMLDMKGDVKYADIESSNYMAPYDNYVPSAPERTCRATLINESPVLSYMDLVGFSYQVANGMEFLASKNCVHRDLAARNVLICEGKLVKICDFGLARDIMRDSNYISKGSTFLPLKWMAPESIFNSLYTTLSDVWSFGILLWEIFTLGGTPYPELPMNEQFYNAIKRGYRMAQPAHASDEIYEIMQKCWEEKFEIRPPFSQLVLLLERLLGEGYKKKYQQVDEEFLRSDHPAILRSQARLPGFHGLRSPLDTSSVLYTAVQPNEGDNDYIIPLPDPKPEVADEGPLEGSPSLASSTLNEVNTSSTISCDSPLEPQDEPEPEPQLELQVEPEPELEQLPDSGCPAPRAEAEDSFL

| IC50 [1] | IC50 [2] | IC50 [3] | IC50 [4] | IC50 [5] | IC50 [6] | Compound |
| --- | --- | --- | --- | --- | --- | --- |
| 0.053 µM | – | – | – | – | – | Nc1nc(Nc2cccc(Br)c2)c2cc(Cc3cccc4ccccc34)[nH]c2n1 |
| 10.1 µM | > 50 µM | 13.2 µM | 3.4 µM | 32.7 µM | 42.3 µM | Nc1nc(Nc2cccc(Br)c2)c2cc(CCc3ccccc3Cl)[nH]c2n1 |
| – | 90 µM | – | 122 µM | > 200 µM | > 200 µM | Nc1nc(Nc2ccc(F)c(C(F)(F)F)c2)c2cc(CCc3ccccc3)[nH]c2n1 |
| – | > 500 µM | 3.4 µM | > 200 µM | > 200 µM | 198 µM | Nc1nc(Nc2ccc(F)c(Br)c2)c2cc(CCc3ccccc3)[nH]c2n1 |
| – | > 500 µM | – | > 200 µM | > 200 µM | > 200 µM | Nc1nc(Nc2cccc(C(F)(F)F)c2)c2cc(CCc3ccccc3)[nH]c2n1 |
| – | > 500 µM | – | 1.32 µM | > 200 µM | > 200 µM | Nc1nc(Nc2ccc(Cl)cc2F)c2cc(CCc3ccccc3)[nH]c2n1 |
| 15.2 µM | 11 µM | 8.2 µM | 4.8 µM | 11.2 µM | – | Nc1nc(Nc2cccc(Br)c2)c2cc(CCc3cccc4ccccc34)[nH]c2n1 |
| 18.9 µM | 13.7 µM | > 50 µM | 4.7 µM | 7.8 µM | 16.8 µM | Nc1nc(Nc2cccc(Br)c2)c2cc(CCc3ccc4ccccc4c3)[nH]c2n1 |
| 21.1 µM | > 50 µM | > 50 µM | 2.2 µM | 31.8 µM | > 50 µM | COc1ccc(CCc2cc3c(Nc4cccc(Br)c4)nc(N)nc3[nH]2)cc1 |
| – | 77.4 µM | – | > 200 µM | > 200 µM | 24.9 µM | Nc1nc(Nc2ccc3[nH]ccc3c2)c2cc(CCc3ccccc3)[nH]c2n1 |
| 5.9 µM | > 500 µM | 6.8 µM | 22.8 µM | > 200 µM | 132 µM | Nc1nc(Nc2ccc(F)c(Cl)c2)c2cc(CCc3ccccc3)[nH]c2n1 |
| 3.3 µM | > 500 µM | 1.6 µM | 3.18 µM | > 200 µM | > 200 µM | Nc1nc(Nc2ccc(Cl)cc2)c2cc(CCc3ccccc3)[nH]c2n1 |
| – | 100 µM | – | > 200 µM | > 200 µM | > 200 µM | C#Cc1cccc(Nc2nc(N)nc3[nH]c(CCc4ccccc4)cc23)c1 |

| Compound | IC50 [1] | IC50 [2] | IC50 [3] | IC50 [4] | IC50 [5] | IC50 [6] |
| --- | --- | --- | --- | --- | --- | --- |
| Nc1nc(Nc2cccc(Br)c2)c2cc(CCc3ccccc3)[nH]c2n1 | 19.5 µM | 11.8 µM | – | 0.3 µM | 45.1 µM | > 50 µM |
| Nc1nc(Nc2cccc(Br)c2)c2cc(Cc3ccccc3)[nH]c2n1 | – | > 50 µM | – | – | – | – |
| Nc1nc(Nc2cccc(Br)c2)c2cc(Cc3ccccc3Cl)[nH]c2n1 | 1.7 µM | > 50 µM | – | – | – | – |
| Nc1nc(Nc2cccc(Br)c2)c2cc(Cc3ccc4ccccc4c3)[nH]c2n1 | – | > 50 µM | – | – | – | – |

Source: ChEMBL document CHEMBL1150356, “Design, synthesis and biological evaluation of substituted pyrrolo[2,3-d]pyrimidines as multiple receptor tyrosine kinase inhibitors and antiangiogenic agents” (Bioorg Med Chem, 2008)
